This note sets out measurements from article PMC8029449 (ACS chemical neuroscience, 2021).

For assay [1], the system named is VSV-eGFP-SARS-CoV-2. The format is cell-based, vesicular stomatitis virus. The settings on record: 25 µM.
In assay [2] the test system is VEGFR2 phosphorylation at Y1175 in CAD cells. Kind of assay: In cell western for inhibition of VEGFR2 activation by VEGF-A165. The format is cell-based, mouse. The settings on record: compounds at 12.5 μM, 1 nM VEGF-A165, 1 hour.

`NC(N)=NCCC[C@H](NC(=O)c1sccc1NS(=O)(=O)c1cccc2nsnc12)C(=O)O` [Compound A]: the “inhibition of VSV-eGFP-SARS-CoV-2 entry into cells” value in assay [1] is reported as “ineffective”. The “block of VEGF-A stimulated increased phosphorylation of VEGFR2 (pY1175)” value in assay [2] is “blocked”.
